According to patent publication US10370333B2 (Sanford Burnham Prebys Medical Discovery Institute, priority 2012, dated 2019):
pIC50: −log10 of the molar value.

Legend:
TNAP human plasma = TNAP human plasma (Homo sapiens, UniProt P05186); type: biochemical; conditions: substrate pNPP
TNAP = TNAP (Homo sapiens (Human), UniProt P05186); assay: TNAP (PPi) inhibition assay, pyrophosphate as substrate; type: biochemical
How it was run: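 Enzyme source was conditioned serum-free medium from COS-1 cells transiently expressing tagged human TNAP, dialyzed against TBS with MgCl2/ZnCl2. Activity on natural substrate PPi at pH 7.4 read as liberated phosphate (Biomol Green).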

Row | Compound | pIC50 (TNAP) | pIC50 (TNAP human plasma)
1 | COc1ccc(OC)c(S(=O)(=O)Nc2cnc3ccc(C(=O)NC4CCCCC4)cc3c2)c1 [Example IX-16, 3-(2,5-Dimethoxy-benzenesulfonylamino)-quinoline-6-carboxylic Acid Cyclohexylamide] | > 7.00 | > 5.30
2 | O=S(=O)(Nc1cncc(-c2cncs2)c1)c1cc(Cl)ccc1OC(F)(F)F [Example XI-25, 5-Chloro-N-(5-(thiazol-5-yl)pyridin-3-yl)-2-(trifluoromethoxy)benzenesulfonamide] | 6.00 to 7.00 | 
3 | O=S(=O)(Nc1cncc(-c2cncs2)c1)c1cc(Br)ccc1OC(F)(F)F [Example XI-26, 5-bromo-N-(5-(thiazol-5-yl)pyridin-3-yl)-2-(trifluoromethoxy)benzenesulfonamide] | > 7.00 | 
4 | COc1ccc(OC(F)(F)F)cc1S(=O)(=O)Nc1cncc(-c2cncs2)c1 [Example XI-27, 2-Methoxy-N-(5-(thiazol-5-yl)pyridin-3-yl)-5-(trifluoromethoxy)benzenesulfonamide] | 6.00 to 7.00 | 
5 | O=S(=O)(Nc1cncc(-c2cscn2)c1)c1cc(Cl)ccc1OC(F)(F)F [Example XI-28, 5-Chloro-N-(5-(thiazol-4-yl)pyridin-3-yl)-2-(trifluoromethoxy)benzenesulfonamide] | > 7.00 | 
6 | O=S(=O)(Nc1cncc(-c2cscn2)c1)c1cc(Br)ccc1OC(F)(F)F [Example XI-29, 5-Bromo-N-(5-(thiazol-4-yl)pyridin-3-yl)-2-(trifluoromethoxy)benzenesulfonamide] | > 7.00 | 
7 | COc1ccc(OC(F)(F)F)cc1S(=O)(=O)Nc1cncc(-c2cscn2)c1 [Example XI-30, 2-Methoxy-N-(5-(thiazol-4-yl)pyridin-3-yl)-5-(trifluoromethoxy)benzenesulfonamide] | > 7.00 | 
8 | Cn1cc(-c2cncc(NS(=O)(=O)c3cc(Br)ccc3OC(F)(F)F)c2)cn1 [Example XI-31, 5-Bromo-N-(5-(1-methyl-1H-pyrazol-4-yl)pyridin-3-yl)-2-(trifluoromethoxy)benzenesulfonamide] | > 7.00 | 
9 | COc1ccc(OC(F)(F)F)cc1S(=O)(=O)Nc1cncc(-c2cnn(C)c2)c1 [Example XI-32, 2-Methoxy-N-(5-(1-methyl-1H-pyrazol-4-yl)pyridin-3-yl)-5-(trifluoromethoxy)benzenesulfonamide] | > 7.00 | 
10 | COC(=O)c1cncc(NS(=O)(=O)c2cc(Cl)ccc2OC(F)(F)F)c1 [Example XII-1, Methyl 5-(5-chloro-2-(trifluoromethoxy)phenylsulfonamido)nicotinate] | 6.00 to 7.00 | 
11 | CNC(=O)c1cncc(NS(=O)(=O)c2cc(Cl)ccc2OC(F)(F)F)c1 [Example XII-6, 5-(5-Chloro-2-(trifluoromethoxy)phenylsulfonamido)-N-methylnicotinamide] | 6.00 to 7.00 | 
12 | CCCNC(=O)c1cncc(NS(=O)(=O)c2cc(Cl)ccc2OC(F)(F)F)c1 [Example XII-7, 5-(5-Chloro-2-(trifluoromethoxy)phenylsulfonamido)-N-propylnicotinamide] | < 6.00 | 
13 | O=C(NC1CCCCC1)c1cncc(NS(=O)(=O)c2cc(Cl)ccc2OC(F)(F)F)c1 [Example XII-8, 5-(5-Chloro-2-(trifluoromethoxy)phenylsulfonamido)-N-cyclohexylnicotinamide] | 6.00 to 7.00 | 
14 | COC(=O)c1cncc(NS(=O)(=O)c2cc(Br)ccc2OC(F)(F)F)c1 [Example XII-9, Methyl 5-(5-bromo-2-(trifluoromethoxy)phenylsulfonamido)nicotinate] | 6.00 to 7.00 | 
15 | NC(=O)c1cncc(NS(=O)(=O)c2cc(Br)ccc2OC(F)(F)F)c1 [Example XII-13, 5-(5-Bromo-2-(trifluoromethoxy)phenylsulfonamido)nicotinamide] | > 7.00 | 
16 | CNC(=O)c1cncc(NS(=O)(=O)c2cc(Br)ccc2OC(F)(F)F)c1 [Example XII-14, 5-(5-Bromo-2-(trifluoromethoxy)phenylsulfonamido)-N-methylnicotinamide] | 6.00 to 7.00 | 
17 | COC(=O)c1cncc(NS(=O)(=O)c2cc(OC(F)(F)F)ccc2OC)c1 [Example XII-15, Methyl 5-(2-methoxy-5-(trifluoromethoxy)phenylsulfonamido)nicotinate] | 6.00 to 7.00 | 
18 | CNC(=O)c1cncc(NS(=O)(=O)c2cc(OC(F)(F)F)ccc2OC)c1 [Example XII-20, 5-(2-Methoxy-5-(trifluoromethoxy)phenylsulfonamido)-N-methylnicotinamide] | 6.00 to 7.00 | 
19 | COc1ccc(OC(F)(F)F)cc1S(=O)(=O)Nc1cncc(C(=O)NC2CCCCC2)c1 [Example XII-22, 5-(2-Methoxy-5-(trifluoromethoxy)phenylsulfonamido)-N-cyclohexylnicotinamide] | 6.00 to 7.00 | 

The next lines start with results.

Row | pIC50 (TNAP) | Compound | pIC50 (TNAP human plasma)
20 | > 7.00 | O=C(OC1CCCCC1)c1cncc(NS(=O)(=O)c2cc(Cl)ccc2OC(F)(F)F)c1 [Example XII-3, Cyclohexyl 5-(5-chloro-2-(trifluoromethoxy)phenylsulfonamido)nicotinate] | 
21 | > 7.00 | O=C(Oc1ccccc1)c1cncc(NS(=O)(=O)c2cc(Cl)ccc2OC(F)(F)F)c1 [Example XII-4, Phenyl 5-(5-chloro-2-(trifluoromethoxy)phenylsulfonamido)nicotinate] | 
22 | > 7.00 | O=C(O)c1cncc(NS(=O)(=O)c2cc(Br)ccc2OC(F)(F)F)c1 [Example XII-10, 5-(5-Bromo-2-(trifluoromethoxy)phenylsulfonamido)nicotinic acid] | 
23 | > 7.00 | O=C(OC1CCCCC1)c1cncc(NS(=O)(=O)c2cc(Br)ccc2OC(F)(F)F)c1 [Example XII-11, Cyclohexyl 5-(5-bromo-2-(trifluoromethoxy)phenylsulfonamido)nicotinate] | 
24 | > 7.00 | O=C(Oc1ccccc1)c1cncc(NS(=O)(=O)c2cc(Br)ccc2OC(F)(F)F)c1 [Example XII-12, Phenyl 5-(5-bromo-2-(trifluoromethoxy)phenylsulfonamido)nicotinate] | 
25 | > 7.00 | CCCOC(=O)c1cncc(NS(=O)(=O)c2cc(OC(F)(F)F)ccc2OC)c1 [Example XII-16, Propyl 5-(2-methoxy-5-(trifluoromethoxy)phenylsulfonamido)nicotinate] | 
26 | > 7.00 | COc1ccc(OC(F)(F)F)cc1S(=O)(=O)Nc1cncc(C(=O)OC2CCCCC2)c1 [Example XII-17, Cyclohexyl 5-(2-methoxy-5-(trifluoromethoxy)phenylsulfonamido)nicotinate] | 
27 | > 7.00 | COc1ccc(OC(F)(F)F)cc1S(=O)(=O)Nc1cncc(C(=O)Oc2ccccc2)c1 [Example XII-18, Phenyl 5-(2-methoxy-5-(trifluoromethoxy)phenylsulfonamido)nicotinate] | 
28 | < 6.00 | CCCNC(=O)c1cncc(NS(=O)(=O)c2cc(OC(F)(F)F)ccc2OC)c1 [Example XII-21, 5-(2-Methoxy-5-(trifluoromethoxy)phenylsulfonamido)-N-propylnicotinamide] | 
29 | < 6.00 | COC(=O)c1cncc(N(C)S(=O)(=O)c2cc(OC)ccc2OC(F)(F)F)c1 [Example XII-23, 5-[(5-Methoxy-2-trifluoromethoxy-benzenesulfonyl)-methyl-amino]-nicotinic Acid Methyl Ester] | 
